Data as given in patent US12440466B2, “Fatty acid derivatives for treating non-alcoholic steatohepatitis” (BASF AS, priority 2017, dated 2025).
Marks after values point to notes of the source that are not given here.

Experiments:
Type in all cases: in vivo, mouse
APOE*3Leiden.CETP mice = experiment: Hepatocellular hypertrophy grading in APOE*3Leiden.CETP double transgenic mice; conditions: APOE*3Leiden.CETP mice on high fat/cholesterol diet; 0.3 mmol/kg bw per day by gavage; 20 weeks
From the text: The APOE*3Leiden.CETP double transgenic mouse expresses a variant of the human apolipoprotein E3 (APOE3), the APOE*3Leiden, in addition to the human apolipoprotein C1 (APOC1) and CETP. […] By increasing the cholesterol content of the diet in this model, all the characteristics of human NASH develop.
In one study (using 1% cholesterol w/w), after a 3 weeks run-in period low-responder mice (20% of total) were removed from the study and the remaining mice were sub-divided into 4 groups of 12 mice each (+5 in the control group), matched for plasma cholesterol, triglycerides, blood glucose, body weight and age (t=0) and treatment was started. The mice received a daily gavage between 07hr00 and 10hr00 with either Compound A at 0.3 mmol/kg bw per day, the comparison compound Compound N (0.3 mmol/kg bw per day), rosiglitazone (13 mg/kg bw per day) or control (corn oil). After 20 weeks of treatment mice were sacrificed by CO2 asphyxiation, the liver was collected and the level of hepatocellular hypertrophy was graded.

[1] = test system: canonical genes regulating hepatic fibrogenesis; experiment: Hepatic fibrogenic gene expression by RNA sequencing in ob/ob AMLN mice; conditions: 4 weeks, Compound A 112 mg/kg, pioglitazone 30 mg/kg
Protocol: (§1) Obese diet-induced B6.V-Lepob/Jrj mice (ob/ob) are consistently fibrosis (liver) prone when cholesterol (2%), 40% fat (containing 18% trans-fatty acids) and 20% fructose are added to a high-caloric diet (i.e., AMLN high-fat diet). ob/ob mice on AMLN diet (termed ‘ob/ob AMLN mice’) develop steatohepatitis and fibrosis within a shorter timeframe ([…]) compared with wild-type C57BL/6 mice (AMLN mice) fed the same diet. ob/ob AMLN mice provide an obese diet-induced model of NASH that also allows the study of effects on glycemic control. Development of NASH in the ob/ob AMLN model is confirmed by biopsy.
(§2) In Biological Examples 10-12, 15, and 19, studies were performed in male ob/ob mice (5 weeks old) fed an AMLN high-fat diet for 15 weeks, then randomized into 3 groups (n=10 per group) to receive either 112 mg/kg bw per day of Compound A via diet, 30 mg/kg bw per day pioglitazone via diet or no treatment (vehicle) for a further 4 weeks. An oral glucose tolerance test (OGTT) was performed at week 3. Hepatic fibrosis was assessed via measurements of hepatic fibrogenic/fibrolytic gene expression by RNA sequencing at 4 weeks.

[2] = test system: genes regulating extracellular matrix (ECM) stability or fibrolysis; experiment: Hepatic ECM stability/fibrolysis gene expression by RNA sequencing in ob/ob AMLN mice; conditions: 4 weeks, Compound A 112 mg/kg, pioglitazone 30 mg/kg
Protocol: as §1, §2

inflammatory genes = experiment: Hepatic inflammatory gene expression in ob/ob AMLN mice; conditions: 4 weeks, Compound A 112 mg/kg
Protocol: as §1, §2

col1A1 = experiment: Hepatic col1A1 content by quantitative IHC in ob/ob AMLN mice; conditions: 8 weeks
Protocol: as §1
(§3) In Biological Examples 10, 13-14, and 16-18, studies were performed in male ob/ob mice (5 weeks old) fed an AMLN high-fat diet for 18 weeks, then randomized into 6 groups (n=10 per group) to receive either Compound A (at 3 different daily doses, 45 mg/kg, 90 mg/kg or 135 mg/kg) via diet, 30 mg/kg bw per day obeticholic acid (OCA) via diet, or no treatment (vehicle) for a further 8 weeks. Assessment of NASH related parameters and fibrosis was made at study end by quantitative immune histochemistry (IHC) measurements.

galectin-3 (Gal-3) = experiment: Hepatic galectin-3 (Gal-3) levels by IHC in ob/ob AMLN mice; conditions: 8 weeks, Compound A 45, 90, 135 mg/kg
Protocol: as §1, §3
To assess the effects of 8 weeks treatment with either Compound A (45 mg/kg, 90 mg/kg, or 135 mg/kg) or OCA (30 mg/kg) on hepatic inflammation in ob/ob AMLN mice, IHC was performed to assess galectin-3 (Gal-3) levels.

ob/ob AMLN mice = experiment: Plasma ALT and AST (hepatocellular damage) in ob/ob AMLN mice; conditions: 8 weeks
Protocol: as §1, §3
To assess the effects of Compound A and pioglitazone on hepatocellular injury or damage in ob/ob AMLN mice, plasma alanine aminotransferase (ALT) and aspartate transaminase (AST) were measured after 8 weeks of administration.

[3] = pioglitazone 30 mg/kg, data not shown
[4] = pioglitazone 30 mg/kg, vs vehicle

For `CC/C=C\C/C=C\C/C=C\C/C=C\C/C=C\CCCCOC(CC)C(=O)O` (centres unmarked) [Compound A, 2-((5Z,8Z,11Z,14Z,17Z)-icosa-5,8,11,14,17-pentaenyloxy)butanoic acid], the “Decrease in hypertrophy vs. control (%)” value (APOE*3Leiden.CETP mice) was 83* %, the Hepatocellular hypertrophy (APOE*3Leiden.CETP mice) was 8.9 ± 5.9 and the “hepatic HSP47 expression” value [1] was “significantly reduced”. For the same compound, the “hepatic PDGF-β expression” value [1] was “significantly reduced”, the “hepatic PDGFR-β expression” value [1] was “significantly reduced” and the “hepatic col1A1 expression” value [1] was “significantly reduced”. For the same compound, the “hepatic col3A1 expression” value [1] was “significantly reduced”, the “hepatic col4A1 expression” value [1] was “significantly reduced” and the “hepatic expression of LOX-like 2 (LOXL2)” value [2] was “significantly reduced”. For the same compound, the “hepatic expression of LOXL1” value [2] was “significantly reduced”, the “hepatic expression of TIMP1” value [2] was “significantly reduced” and the “hepatic expression of lysyl-oxidase (LOX)” value [2] was “significantly reduced”. For the same compound, the MAC-2 expression (inflammatory genes; data not shown) was “Significant reductions”, the MCP-1 transcript levels (inflammatory genes; [3]) was “Neither compound significantly reduced” and the “interleukin (IL)-1β transcript levels” value (inflammatory genes; [3]) was “Neither compound significantly reduced”. For the same compound, the CCR2 expression (inflammatory genes; [4]) was “Significant reductions”, the CD14 expression (inflammatory genes; [4]) was “Significant reductions” and the CD68 expression (inflammatory genes; [4]) was “Significant reductions”. For the same compound, the “transcript levels of TGF-β1” value (inflammatory genes; [4]) was “reduced”, the “transcript levels of TGF-β1 receptor (TGFRβ)” value (inflammatory genes; [4]) was “reduced” and the “Galectin-3 (Gal-3) levels” value (inflammatory genes; vs vehicle) was “significantly reduced”. For the same compound, the “col1A1 content compared with pre-biopsy content” value (col1A1; Compound A 45 mg/kg) was “trend towards decreased col1A1 content”, the “col1A1 levels as a percentage of total surface area” value (“col1A1 levels as a percentage” for short) (col1A1; Compound A 45 mg/kg) was “not statistically significant” and the “col1A1 levels as a percentage” value (col1A1; Compound A 90 mg/kg) was “significant reduction”. The “total col1A1 content” value (col1A1; Compound A 90 mg/kg) was “reduced”, the “col1A1 content compared with pre-biopsy content” value (col1A1; Compound A 90 mg/kg, decrease, p<0.005) was “statistically significant” and the “col1A1 content compared with pre-biopsy content” value (col1A1; Compound A 135 mg/kg) was “trend towards decreased col1A1 content”. The “col1A1 levels as a percentage” value (col1A1; Compound A 135 mg/kg) was “not statistically significant”, the “total col1A1 content” value (col1A1; Compound A 135 mg/kg) was “reduced” and the “Gal-3 expression level, percentage of area” value (galectin-3 (Gal-3)) was “dose responsive reduction”. The “Gal-3 expression level, total content” value (galectin-3 (Gal-3); OCA 30 mg/kg) was “dose responsive reduction”, the “plasma ALT” value (ob/ob AMLN mice; Compound A 90 mg/kg, p<0.01) was “marked and significant reduction” and the “plasma AST” value (ob/ob AMLN mice; Compound A 90 mg/kg, p<0.05) was “significantly reduced”. For the same compound, the “plasma ALT” value (ob/ob AMLN mice; Compound A 135 mg/kg, p<0.001) was “marked and significant reduction” and the “plasma AST” value (ob/ob AMLN mice; Compound A 135 mg/kg, p<0.01) was “significantly reduced”.
